According to patent US20220249401A1, “DIETARY SUPPLEMENT FORMULATED BASED ON ALL-TRANS FORM OF MENAQUINONE-7” (NUTRIOMICS LIMITED, priority 2021, published 2022):

System: MGP
Experiment: MGP gene expression in chondrocyte cells treated with trans form of MK7
Format: cell-based
Conditions: Chondrocyte cells treated with 0.01% (w/w) trans form of MK7; mRNA encoding MGP, relative to control conditions
Description: Example 2—The role of the trans form of MK7 in expression of MGP was measured as compared to control samples. Chondrocyte cells were treated with 0.01% (w/w) trans form of vitamin MK7 and results were reported as fold change in gene expression relative to control conditions.
MGP expression was elevated by 21% in the presence of trans form of MK7 as compared to the control samples as can be concluded from FIG. 2. […] MGP gene expression found to actively be regulated in the presence of trans form of MK7.

## CC(C)=CCC/C(C)=C/CC/C(C)=C/CC/C(C)=C/CC/C(C)=C/CC/C(C)=C/CC/C(C)=C/CC1=C(C)C(=O)c2ccccc2C1=O [trans form of MK7, all-trans form of Menaquinone-7]
  MGP expression elevated as compared to the control samples: 21%
